Test results taken from ChEMBL document CHEMBL1201862, “PubChem BioAssay data set” (2004).
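48-hour exposure; five concentrations; linearly interpolated endpoints. The concentration for 50% growth inhibition is given as GI50.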 Calls of active or inactive are those of the source. No stated cut-off is given here; in the data, active = GI50 up to about 1.1 µM and inactive = higher.

Assays:
Assay in all cases: DTP human tumour cell line panel, 48 h
[1] = system: MDA-N
[2] = system: UACC-257
[3] = system: SNB-75
[4] = system: SN12C
[5] = system: A549
[6] = system: Hs-578T
[7] = system: 786-0
[8] = system: OVCAR-3
[9] = system: NCI-H522
[10] = system: MDA-MB-231
[11] = system: TK-10
[12] = system: ACHN
[13] = system: SK-MEL-5
[14] = system: SK-MEL-28
[15] = system: A498
[16] = system: NCI-H460
[17] = system: NCI-H23
[18] = system: PC-3
[19] = system: K562

Measured: GI50

O=C(O)c1nc(-c2ccccc2)[nH]c1C(=O)O
inactive: [1] 11.8 µM | [2] 16.6 µM | [3] 19.4 µM | [4] 13.6 µM | [5] 14 µM | [6] 24.8 µM | [7] 10.6 µM | [8] 11.8 µM | [9] 13.1 µM | [10] 5.62 µM | [11] 15.5 µM | [12] 16.8 µM | [13] 15.1 µM | [14] 16.6 µM | [15] 15.4 µM | [16] 15.4 µM | [17] 13.9 µM | [18] 5.32 µM | [19] 3.72 µM

Cc1ccc(S(=O)(=O)c2ccsc2NC(=O)c2ccccc2)cc1
inactive: [1] 3.39 µM | [2] > 100 µM | [3] 28.2 µM | [4] > 100 µM | [5] 48.1 µM | [6] 17.3 µM | [7] 23 µM | [8] > 100 µM | [9] > 100 µM | [10] 14.8 µM | [11] 36.3 µM | [12] > 42.6 µM | [13] 12.7 µM | [14] > 100 µM | [15] 45.9 µM | [16] 41.1 µM | [17] > 31.6 µM | [18] > 81.5 µM | [19] 2.17 µM

CC(=O)OC(=C(C#N)C#N)c1nccnc1C(=O)O
inactive: [1] > 100 µM | [2] > 100 µM | [3] 95.7 µM | [4] > 100 µM | [5] > 100 µM | [6] > 100 µM | [7] > 100 µM | [8] > 100 µM | [9] > 100 µM | [10] > 100 µM | [12] > 100 µM | [13] > 100 µM | [14] > 100 µM | [15] > 100 µM | [16] > 100 µM | [17] > 100 µM | [18] > 100 µM | [19] > 100 µM

COC(=O)c1ccccc1/C=C1\Cc2cc3c(cc2C1=O)CCC3
inactive: [1] 3.78 µM | [2] > 100 µM | [3] 34.9 µM | [4] > 100 µM | [5] > 100 µM | [6] > 10 µM | [7] 38.4 µM | [8] > 100 µM | [9] 68.9 µM | [10] > 100 µM | [11] 59.8 µM | [12] > 100 µM | [13] > 100 µM | [14] > 100 µM | [15] 61.2 µM | [16] > 100 µM | [17] > 100 µM | [18] 8.51 µM

O=C(c1cc2c(c3ccccc13)NCCN=C2C(F)(F)F)C(F)(F)F
inactive: [1] 21.4 µM | [2] 19.3 µM | [3] 21.6 µM | [6] 14.3 µM | [7] 20.8 µM | [8] 26 µM | [9] 20.6 µM | [10] 20.2 µM | [11] 24.9 µM | [12] 22.8 µM | [13] 16.4 µM | [14] 18.9 µM | [15] 17.1 µM | [16] 15.5 µM | [17] 40.6 µM | [18] 14.6 µM | [19] 7.16 µM

O=C(/N=C1/OC(CN2CCOCC2)CN1C(=O)Nc1ccccc1)Nc1ccccc1 (stereo not given)
inactive: [1] > 100 µM | [2] > 100 µM | [3] 54.7 µM | [4] > 100 µM | [5] > 100 µM | [6] > 100 µM | [7] > 100 µM | [9] > 100 µM | [10] > 100 µM | [11] > 100 µM | [12] > 100 µM | [13] > 100 µM | [14] > 100 µM | [15] > 100 µM | [16] > 100 µM | [17] > 100 µM | [18] > 100 µM | [19] > 100 µM

C=CC[C@@H](N)C(=O)N(C)[C@@H](C)[C@@H](O)c1ccccc1
inactive: [1] > 100 µM | [2] > 100 µM | [3] 5.77 µM | [5] > 100 µM | [6] > 100 µM | [7] > 100 µM | [8] > 100 µM | [9] 12.4 µM | [10] > 100 µM | [11] > 100 µM | [12] > 100 µM | [13] > 100 µM | [14] > 100 µM | [15] > 100 µM | [16] > 100 µM | [17] > 100 µM | [18] > 100 µM

CC(C)CNP(=O)(NCC(C)C)Oc1ccc(CC(NC(=O)OCc2ccccc2)C(=O)OCc2ccccc2)cc1 (stereo not given)
inactive: [1] 18.8 µM | [2] 24.8 µM | [3] 19.5 µM | [4] 18.8 µM | [5] 47.5 µM | [6] 28.4 µM | [7] 13.6 µM | [8] 3.68 µM | [9] 13.4 µM | [10] 17.7 µM | [11] 31.4 µM | [12] 16.9 µM | [13] 20.2 µM | [14] 15.4 µM | [15] 22.5 µM | [16] 18.1 µM | [17] 15.3 µM | [18] 17.1 µM | [19] 20 µM
